Source: the NIST ThermoML archive (doi:10.1021/je100022w)
Numbers after ± are expanded uncertainties.

Details: Crystal 2; DSC

Triple point temperature: 449.15 ± 1 K
Structure (SMILES): COC(=O)[C@H](c1ccccc1Cl)N1CCc2sccc2C1.O=S(=O)(O)O [(S)-(+)-Clopidogrel hydrogen sulfate]
